Measured values from article PMC6070797 (Marine Drugs, 2018).

Legend:
IMPDH2 = molecular target: T1, IMPDH2 (Homo sapiens, UniProt P12268); assay: IMPDH2 enzyme inhibition assay (recombinant protein, absorbance at 340 nm); type: biochemical; conditions: recombinant IMPDH2, IMP and NAD+ substrates, pH 7.2, 37 °C; mean ± SD of three triplicate experiments; read-out: IC50 Inosine-5′-Monophosphate Dehydrogenase (IMPDH2)
T1 construct: made in house; host or cells: Escherichia coli BL21(DE3)
Description: The gene encoding IMPDH2 was cloned into the pET-28a vector (Novagen). After the recombinant plasmids were verified by sequencing, the plasmid was transformed into Escherichia coli BL21(DE3) (Invitrogen), which was grown in LB medium at 37 °C to an OD600 (0.8–1.0) and induced by 0.4 mM isopropyl-D-thiogalactopyranoside (IPTG) and grown at 20 °C for 16 h. The cell pellet was harvested and re-suspended in 30 mL buffer (20 mM Tris pH 8.5, 200 mM NaCl, and 10 mM imidazole), followed by disruption on a French press. Cell debris was removed by centrifugation at 21,000 rpm for 30 min. […] The protein was further purified with size exclusion chromatography at 20 mM Tris pH 8.5 and 200 mM NaCl.
The IMPDH2 inhibitory effects of test compounds were measured using the recombinant protein above. The enzyme solution (20 µL, 10 µg/mL), test compounds (10 µL) and buffer (40 µL, 100 mM phosphate buffer, pH 7.2) were pipetted and mixed in a 96-well microtiter plate. The mixture was incubated for 10 min at 37 °C. After incubation, inosine 5′-monophosphate (IMP) substrate solution (30 µL, 2.5 mM) and NAD^+ (30 µL, 5 mM) were added. The reaction can be readily monitored by an increase in optical absorbance at 340 nm. […] The data were imported into Prism (version 5.0, GraphPad) and the IC50 values were calculated by using a standard dose response curve fitting.

[1] = system: Mouse splenocyte proliferation (T lymphocytes); assay: Immunosuppressive activity: ConA-induced proliferation of mouse splenocytes (T lymphocytes), CCK8; type: cell-based, BALB/c mice; conditions: BALB/c spleen cells, 5 μg/mL ConA, 24 h, mean ± SD of three triplicate experiments
Text: To assess the biological activity of the MPA derivatives, we primarily evaluated their IMPDH2 inhibitory activity with the previously reported enzyme assay method. […] Subsequently, the MPA derivatives were further tested for the in vitro immunosuppressive activity against the proliferation of T lymphocytes. Unsurprisingly, the activity at the cellular level was markedly consistent with their IMPDH2 inhibitory activity.
BALB/c mice were sacrificed by cervical dislocation, and the spleens were removed aseptically. Mononuclear cell suspensions were prepared after cell debris, and clumps were removed. Erythrocytes were depleted with ammonium chloride buffer solution. Lymphocytes were washed and suspended in DMEM medium supplemented with 10% FBS, penicillin (100 U/mL), and streptomycin ([…]). The 5 × 10^5 (150 μL per well) spleen cells in 96-well microtiter plates were cultured at 37 °C in a humidified and 5% CO2-containing incubator for 24 h in the presence or absence of the serious concentrations (ranging from 0.1 to 100 µM) of compounds. The cultures were stimulated with 5 μg/mL of concanavalin A (ConA) to induce T cells proliferative response. After treatment for 24 h, the cell quantity was measured using a CCK8 assay kit according to the manufacturer’s instructions.

Structure (SMILES) | IC50 (IMPDH2) [µM] | IC50 [1] [µM]
COCc1c2c(c(O)c(C/C=C(\C)CCC(=O)O)c1OC)C(=O)OC2 [Compound 1, 8-O-methyl mycophenolic acid] | 0.92 ± 0.08 | 4.21 ± 0.2
COc1c(C)c2c(c(O)c1C/C=C(\C)CCC(=O)O)C(=O)OC2O (stereo not drawn) [Compound 2, 3-hydroxy mycophenolic acid] | 0.95 ± 0.09 | 1.23 ± 0.07
COc1c(C)c2c(c(O)c1C/C=C(\C)CCC(=O)O)C(=O)OC2OC (stereo not drawn) [Compound 3, 6-(5-carboxy-3-methylpent-2-enyl)-7-hydroxy-3,5-dimethoxy-4-methylphthalan-1-one] | 0.84 ± 0.11 | 2.76 ± 0.13
COC(=O)CC/C(C)=C/Cc1c(O)c2c(c(C)c1OC)C(O)OC2=O (stereo not drawn) [Compound 4, 6-(5-methoxycarbonyl-3-methylpent-2-enyl)-3,7-dihydroxy-5-methoxy-4-methylphthalan-1-one] | 3.27 ± 0.18 | 9.12 ± 0.38
COc1c(C)c2c(c(O)c1CCC(C)C(=O)O)C(=O)OC2 (stereo not drawn) [Compound 5, 6-(3-carboxybutyl)-7-hydroxy-5-methoxy-4-methylphthalan-1-one] | 24.7 ± 2.74 | > 40
COc1c(C)c2c(c(O)c1C/C=C(\C)CCC(=O)OCC(O)CO)C(=O)OC2 (stereo not drawn) [Compound 6, 6-[5-(2,3-dihydroxy-1-carboxyglyceride)-3-methylpent-2-enyl]-7-hydroxy-5-methoxy-4-methylphthalan-1-one] | 8.59 ± 0.43 | 19.7 ± 0.89
COc1c(C)c2c(c(O)c1C/C=C(\C)CCC(=O)NCCCC(=O)O)C(=O)OC2 [Compound 7, 6-[5-(1-carboxy-4-N-carboxylate)-3-methylpent-2-enyl]-7-hydroxy-5-methoxy-4-methylphthalan-1-one] | 12.6 ± 1.86 | 24.6 ± 1.34
COc1c(C)c2c(c(O)c1C/C=C(\C)CCC(=O)N[C@H](C(=O)O)C(C)C)C(=O)OC2 [Compound 8, N-mycophenoyl-L-valine] | 15.7 ± 1.65 | 30.6 ± 2.19
COc1c(C)c2c(c(O)c1C/C=C(\C)CCC(=O)N[C@@H](Cc1ccccc1)C(=O)O)C(=O)OC2 [Compound 9, N-mycophenoyl-L-phenyloalanine] | 23.8 ± 3.54 | > 40
COc1c(C)c2c(c(O)c1C/C=C(\C)CCC(=O)N[C@@H](C)C(=O)O)C(=O)OC2 [Compound 10, N-mycophenoyl-L-alanine] | 17.5 ± 1.3 | > 40
COc1c(C)c2c(c(O)c1C/C=C(\C)CCC(=O)O)C(=O)OC2 [MPA (11), Mycophenolic acid, reference compound] | – | 0.96 ± 0.05
